Test results as given in patent publication US20130053358A1, “TRANSDERMALLY ABSORBABLE DONEPEZIL-CONTAINING PREPARATION” (HISAMITSU PHARMACEUTICAL CO., INC., priority 2010, published 2013).
Structures can show the parent of a compound that is named as a salt.

System: human normal epidermal cells
Experiment: Production of skin irritation mediators in human three-dimensional epidermal culture model (LabCyte EPI-MODEL), ELISA
Type: cell-based
Text: There was used a human three-dimensional epidermal culture model in which human normal epidermal cells were multilayer-cultured (LabCyte EPI-MODEL, Japan Tissue Engineering Co., Ltd.). LabCyte is a cultured skin cultured in a transwell. For the experiment, LabCyte was used with the transwell.
A cholesterol (Wako Pure Chemical Industries, Ltd.) was used as a test article. Donepezil hydrochloride was used as the drug. Olive oil (Wako Pure Chemical Industries, Ltd.) was used as a vehicle.
Tests were conducted by the following group composition. • Drug Alone Group: A group with addition of 4×10^−4 M of donepezil hydrochloride alone dispersed in a vehicle, as a test solution. • Cholesterol Addition Group: A group with addition of 4×10^−4 M of donepezil hydrochloride and 1% by mass of cholesterol which were dispersed in a vehicle, as a test solution.
The test solutions of each group were added to the cells, the culture after being incubated for 48 hours were collected, and the production amounts of skin irritation mediators were measured. PGE2, IL-1α, IL-6 and IL-8 were measured as the skin irritation mediators. The skin irritation mediators were measured by using a commercially available ELISA kit (R&D Systems, Inc.). The relative production amount of the skin irritation mediator in the Cholesterol Addition Group was calculated as below, when the production amount of the skin irritation mediators in Drug Alone Group was set to 100.
Relative production amount=(production amount of the mediator in Cholesterol Addition Group)/(production amount of the mediator in Drug Alone Group)×100

[1] = 4×10^−4 M donepezil hydrochloride + 1% by mass cholesterol in olive oil, 48 hours incubation

| SMILES | relative production amount of skin irritation mediator IL-1α (drug alone group set to 100) [1] | relative production amount of skin irritation mediator IL-6 (drug alone group set to 100) [1] | relative production amount of skin irritation mediator IL-8 (drug alone group set to 100) [1] | relative production amount of skin irritation mediator PGE2 (drug alone group set to 100) [1] | effect on production amounts of skin irritation mediators by donepezil hydrochloride (1% by mass cholesterol added to 4×10^−4 M donepezil hydrochloride, 48 hours) |
| --- | --- | --- | --- | --- | --- |
| COc1cc2c(cc1OC)C(=O)C(CC1CCN(Cc3ccccc3)CC1)C2 (centres unmarked) [Donepezil hydrochloride, 2-[(1-benzyl-4-piperidinyl)methyl]-5,6-dimethoxyindane-1-on] | 0 | 85 | 59 | 33 |  |
| CC(C)CCC[C@@H](C)[C@H]1CC[C@H]2[C@@H]3CC=C4C[C@@H](O)CC[C@]4(C)[C@H]3CC[C@]12C [cholesterol, (3β)-cholest-5-en-3-olcholest-5-en-3β-ol] |  |  |  |  | effects of decreasing the production amounts of skin irritation mediators |
